Paper PMC5476196, “Uptake, biotransformation and elimination of selected pharmaceuticals in a freshwater invertebrate measured using liquid chromatography tandem mass spectrometry” (Chemosphere, 2017)
Several values for one entry are separate records, joined by “and”; a condition that tells them apart may be missing. Equal entries are not always repeated. Entries after “also recorded” stand apart in the source; their conditions may differ. Structures can show the parent of a compound that is named as a salt.

Assays:
[1] = for stability of aqueous pharmaceutical concentration: across the exposure period; for Concentration, 24 h: exposure media after 24 h of exposure with Day 1 solution; for Concentration, 24 h / Concentration, Day 1 (initial pharmaceutical concentration on day 1): n = 3; for Concentration, 48 h: exposure media after 24 h of exposure with Day 2 solution, n = 3 (propranolol n = 2); for Concentration, Day 2 (initial pharmaceutical concentration on day 2): n = 2; for Concentration, Day 1 (initial pharmaceutical concentration on day 1): nominal 1 μg L^−1 (propranolol 10 μg L^−1)
Experimental: (§1) Individual adult organisms (n = 25), both male and female (>5 mg wet weight) were placed in Pyrex glass beakers. G. pulex were carefully transferred to beakers using blunt forceps to avoid any harm to the organisms before exposure. Each beaker contained 25 organisms in 200 mL of exposure media (AFW and test compound). […] All exposure media contained <0.001% of organic solvent (methanol). A total of 300 organisms were used per compound exposure and were sampled for n = 3 per time-point. […] These were subsequently analysed for background contamination. […] Each animal specimen was rinsed with ultra-pure water and then frozen at −20 °C.
(§2) Water samples collected from exposure experiments were filtered using Whatman filters (0.2 μM) and directly injected onto the LC-MS/MS for analysis. For G. pulex, A mass of 50 mg of lyophilised and ground material was extracted by glass bead pulverisation in 5 mL of acetonitrile and diluted with 100 mL of ammonium acetate buffer (10 mM) for loading onto Waters HLB solid phase extraction (SPE) cartridges (6 cc, 200 mg sorbent).

in vivo = conditions: both, Gammarus pulex, in vivo, G. pulex; for concentration at 6 h: 6h Mean; for concentration at 24 h: 24h Mean
Experimental: as §1, §2
(§3) Briefly, separations were performed on an Agilent HP1100 LC system configured with a Waters SunFire reversed-phase C18 column (150 mm × 2.1 mm, 2.5 μM particle size). […] Detection was performed using a Waters Quattro triple quadrupole mass spectrometer with electrospray ionisation operated in positive and negative polarity switching mode. Quantification of analytes was performed using 3-point internal standard matrix-matched calibration using the peak area ratio of non-labelled analyte (precursor range: 50–300 ng g^−1, biotransformation product range: 50–150 ng g^−1) to the stable isotope labelled internal standard (SIL-IS) (100 ng g^−1).
(§4) Herein, the authors define BCFtotal as the summation of the BCF of both parent/precursor and biotransformation products (i.e. the total body burden). Whereas, BCFparent will be used to describe the BCF determined for the parent compound alone.

Gammarus pulex [2] = assay: in vivo; conditions: for BCFss: steady-state BCF estimation, 48 h
Experimental: as §1, §2, §3, §4

[3] = test system: Pimephales notatus and I. punctatus; design: method as in Garcia et al., 2012; conditions: depending on tissue; ref Garcia et al., 2012; cited from earlier work
Gammarus fossarum = conditions: ref Sordet et al., 2016; cited from earlier work
[4] = test system: Mytilus galloprovincialis; conditions: ref Gomez et al., 2012; cited from earlier work
G. pulex = conditions: ref Miller et al., 2016, cited from earlier work; for SeqBCF, Full Design: sequential BCF; for SeqBCF^a, Full Design: sequential estimation using minitab; for SimBCF, Full Design: simultaneous BCF
sturgeons = test system: sturgeons; design: method as in Hou et al., 2003; conditions: ref Hou et al., 2003; cited from earlier work
Gammarus pulex [5] = assay: Biotransformation products in G. pulex after exposure to propranolol, carbamazepine or diazepam (LC-MS/MS); conditions: for k2 of biotransformation product: depuration phase; for detection of biotransformation product in G. pulex at 96 h: after exposure to the precursor compound, end of depuration
Experimental: as §1, §3
A matrix effect and recovery experiment was performed for these additional analytes before exposures were performed (SI Table S5).

[6] = pH 8.19, internal concentration at the end of the uptake phase, 48 h, exposure 1 μg L^−1 (propranolol 10 μg L^−1)
[7] = both, Gammarus pulex, in vivo, pH 8.19
[8] = pH 8.19, Concentration, n=3, exposure 1 μg L^−1 (warfarin, propranolol 10 μg L^−1)
[9] = pH 8.19, Concentration, 48h Mean, n=3, exposure 1 μg L^−1 (warfarin, propranolol 10 μg L^−1)
[10] = k1 re-calculated over time intervals of the uptake phase
[11] = sequential, Levenberg-Marquardt algorithm, exposure 1 μg L^−1 (warfarin, propranolol 10 μg L^−1)
[12] = sequential, linear regression on elimination data, exposure 1 μg L^−1 (warfarin, propranolol 10 μg L^−1)
[13] = simultaneous parametrisation, exposure 1 μg L^−1 (warfarin, propranolol 10 μg L^−1)

Structure (SMILES): COCCc1ccc(OCC(O)CNC(C)C)cc1 (racemic) [Metoprolol, (±)-metoprolol (+)-tartrate salt]
- stability of aqueous pharmaceutical concentration [1]: remained stable
- Concentration, 24 h [1]: 0.72 ng/mL
- Concentration, 48 h [1]: 0.87 µg/L
- Concentration, Day 2 (initial pharmaceutical concentration on day 2) ([1]; exposure media): 0.86 ng/mL
- Concentration, Day 1 (initial pharmaceutical concentration on day 1) ([1]; exposure media): 0.77 ng/mL
- concentration at 48 h (in vivo; [6]): ≤ 51 ng/g
- BCFparent, Sequential a (Gammarus pulex [2]; [7]): 39 L/kg
- BCFparent, Sequential b (Gammarus pulex [2]; [7]): 37 L/kg
- BCFparent, Simultaneous (Gammarus pulex [2]; [7]): 17 L/kg
- k1 (uptake rate constant), Simultaneous (Gammarus pulex [2]; [7]): 0.4413
- k1, Sequential a (Gammarus pulex [2]; [7]): 0.2788
- k1, Sequential b (Gammarus pulex [2]; [7]): 0.2855
- k2 (depuration rate constant), Simultaneous (Gammarus pulex [2]; [7]): 0.0259
- k2, Sequential a (Gammarus pulex [2]; [7]): 0.0071
- k2, Sequential b (Gammarus pulex [2]; [7]): 0.0078
- BCFss (Gammarus pulex [2]): 9

Structure (SMILES): NC(=O)N1c2ccccc2C=Cc2ccccc21 [Carbamazepine, carbamazepine]
- stability of aqueous pharmaceutical concentration [1]: remained stable
- Concentration, 24 h [1]: 1.01 ng/mL
- Concentration, 48 h [1]: 1.07 µg/L
- Concentration, Day 2 (initial pharmaceutical concentration on day 2) ([1]; exposure media): 1.08 ng/mL
- Concentration, Day 1 (initial pharmaceutical concentration on day 1) ([1]; exposure media): 1.12 ng/mL
- concentration at 6 h (in vivo; [8]): 8 ng/g
- concentration at 24 h (in vivo; [8]): 11 ng/g
- concentration at 48 h (in vivo; [9]): 14 ng/g
- concentration at 48 h (in vivo; [6]): ≤ 51 ng/g
- BCFparent from the average of k1 over the 48 h time interval (Gammarus pulex [2]; [7]): 26 L/kg
- BCF in two species of fish (Pimephales notatus and I. punctatus) [3]: < 7 L/kg
- BCF in Gammarus fossarum (Gammarus fossarum): 5 L/kg

Structure (SMILES): CN1C(=O)CN=C(c2ccccc2)c2cc(Cl)ccc21 [Diazepam, diazepam]
- Concentration, 24 h [1]: 0.86 ng/mL
- Concentration, 48 h [1]: 0.89 µg/L
- Concentration, Day 2 (initial pharmaceutical concentration on day 2) ([1]; exposure media): 1.04 ng/mL
- Concentration, Day 1 (initial pharmaceutical concentration on day 1) ([1]; exposure media): 1.02 ng/mL
- concentration at 6 h (in vivo; [8]): 31 ng/g
- concentration at 24 h (in vivo; [8]): 37 ng/g
- BCFparent from the average of k1 over the 48 h time interval (Gammarus pulex [2]; [10]): 48 L/kg
- BCFparent, Sequential a (Gammarus pulex [2]; [11]): 58 L/kg
- k1, Sequential a (Gammarus pulex [2]; [11]): 2.6469
- k2, Sequential a (Gammarus pulex [2]; [11]): 0.046
- BCFparent, Sequential b (Gammarus pulex [2]; [12]): 53 L/kg
- k1, Sequential b (Gammarus pulex [2]; [12]): 3.0917
- k2, Sequential b (Gammarus pulex [2]; [12]): 0.0582
- BCFparent, Simultaneous (Gammarus pulex [2]; [13]): 41 L/kg
- k2 (depuration rate constant), Simultaneous (Gammarus pulex [2]; [13]): 0.2349
- BCFss (Gammarus pulex [2]): 45
- BCF in marine mussel Mytilus galloprovincialis [4]: 51 L/kg

Structure (SMILES): O=C(O)Cc1ccccc1Nc1c(Cl)cccc1Cl [Diclofenac]
- SeqBCF, Full Design (G. pulex): 21
- SeqBCF^a, Full Design (G. pulex): 27
- SimBCF, Full Design (G. pulex): 14

Structure (SMILES): COc1ccc(CC(C)NCC(O)c2ccc(O)c(NC=O)c2)cc1 (stereo not drawn) [Formoterol]
- SeqBCF, Full Design (G. pulex): 33
- SeqBCF^a, Full Design (G. pulex): 18
- SimBCF, Full Design (G. pulex): 14

Structure (SMILES): CN(C)CCCN1c2ccccc2CCc2ccccc21 [Imipramine]
- SeqBCF, Full Design (G. pulex): 4533
- SeqBCF^a, Full Design (G. pulex): 3811
- SimBCF, Full Design (G. pulex): 212

Structure (SMILES): CC(C)NCC(O)COc1cccc2ccccc12 (stereo not drawn) [Propranolol, Propranolol hydrochloride]
- Concentration, 24 h [1]: 8.92 ng/mL
- Concentration, 48 h [1]: 6.41 μg L^−1 and 6.41 ^a μg L^−1
- decline of aqueous concentration ([1]; exposure media, after the first 24 h): 29%
- Concentration, Day 2 (initial pharmaceutical concentration on day 2) ([1]; exposure media): 8.98 ng/mL
- Concentration, Day 1 (initial pharmaceutical concentration on day 1) ([1]; exposure media): 9.22 ng/mL

Structure (SMILES): Cc1cc(C)nc(NS(=O)(=O)c2ccc(N)cc2)n1 [Sulfamethazine, sulfamethazine]
- stability of aqueous pharmaceutical concentration [1]: remained stable
- Concentration, 24 h [1]: 0.99 ng/mL
- Concentration, 48 h [1]: 0.71 µg/L
- Concentration, Day 2 (initial pharmaceutical concentration on day 2) ([1]; exposure media): 0.89 ng/mL
- Concentration, Day 1 (initial pharmaceutical concentration on day 1) ([1]; exposure media): 1.06 ng/mL
- detection of parent compound in G. pulex samples (Gammarus pulex [2]; exposure 1 μg L^−1): not detected in any sample; also recorded: no peaks were detected
- BCF in sturgeons (sturgeons): 1 L/kg

Structure (SMILES): CN1C(=O)C(O)N=C(c2ccccc2)c2cc(Cl)ccc21 (stereo not drawn) [Temazepam, temazepam]
- stability of aqueous pharmaceutical concentration [1]: remained stable
- Concentration, 24 h [1]: 0.85 ng/mL
- Concentration, 48 h [1]: 1.03 µg/L
- Concentration, Day 2 (initial pharmaceutical concentration on day 2) ([1]; exposure media): 1.17 ng/mL
- Concentration, Day 1 (initial pharmaceutical concentration on day 1) ([1]; exposure media): 0.96 ng/mL
- concentration at 6 h (in vivo; [8]): 20 ng/g
- concentration at 24 h (in vivo; [8]): 32 ng/g
- concentration at 48 h (in vivo; [9]): 38 ng/g
- concentration at 48 h (in vivo; [6]): ≤ 51 ng/g
- BCFparent from the average of k1 over the 48 h time interval (Gammarus pulex [2]; [10]): 40 L/kg
- BCFparent, Sequential a (Gammarus pulex [2]; [11]): 41 L/kg
- k1, Sequential a (Gammarus pulex [2]; [11]): 2.8514
- k2, Sequential a (Gammarus pulex [2]; [11]): 0.0702
- BCFparent, Sequential b (Gammarus pulex [2]; [12]): 41 L/kg
- k1, Sequential b (Gammarus pulex [2]; [12]): 2.751
- k2, Sequential b (Gammarus pulex [2]; [12]): 0.0669
- BCFparent, Simultaneous (Gammarus pulex [2]; [13]): 37 L/kg
- k1 (uptake rate constant), Simultaneous (Gammarus pulex [2]; [13]): 4.3326
- k2 (depuration rate constant), Simultaneous (Gammarus pulex [2]; [13]): 0.1186
- BCFss (Gammarus pulex [2]): 38
- mean concentration of biotransformation product at 48 h (end of the uptake phase) (Gammarus pulex [5]; G. pulex, after exposure to the precursor compound (propranolol 10 μg L^−1, diazepam 1 μg L^−1)): 6 ± 3 ng g^−1 dw
- k2 of biotransformation product (Gammarus pulex [5]; G. pulex, diazepam exposure): 0.016 day⁻¹
- detection of biotransformation product in G. pulex at 96 h (Gammarus pulex [5]): not detectable

Structure (SMILES): CC(C)(C)NCC(O)c1cc(O)cc(O)c1 (stereo not drawn) [Terbutaline]
- SeqBCF, Full Design (G. pulex): 19
- SeqBCF^a, Full Design (G. pulex): 22
- SimBCF, Full Design (G. pulex): 12

Structure (SMILES): COc1cc(Cc2cnc(N)nc2N)cc(OC)c1OC [Trimethoprim]
- Concentration, 24 h [1]: 1.01 ng/mL
- Concentration, 48 h [1]: 0.97 µg/L
- Concentration, Day 2 (initial pharmaceutical concentration on day 2) ([1]; exposure media): 0.99 ng/mL
- Concentration, Day 1 (initial pharmaceutical concentration on day 1) ([1]; exposure media): 1.09 ng/mL

Structure (SMILES): NC(=O)N1c2ccccc2C2OC2c2ccccc21 (stereo not drawn) [carbamazepine-10,11-epoxide]
- detection of biotransformation product in G. pulex at 96 h (Gammarus pulex [5]): not detected
- detection of biotransformation product in G. pulex (Gammarus pulex [5]; carbamazepine exposure, 24 h and 48 h): detection
- quantifiability of biotransformation product in G. pulex (Gammarus pulex [5]; carbamazepine exposure, signals below signal to noise ratio of 10:1): not quantifiable

Structure (SMILES): O=C1CN=C(c2ccccc2)c2cc(Cl)ccc2N1 [nordiazepam]
- concentration of biotransformation product (higher than the parent compound) (Gammarus pulex [5]; G. pulex, diazepam exposure): 94 ng g^−1 dw
- k2 of biotransformation product (Gammarus pulex [5]; G. pulex, diazepam exposure): 0.0194 day⁻¹
- mean concentration of biotransformation product reached (Gammarus pulex [5]; G. pulex, diazepam exposure, time not stated): 64 ± 27 ng g^−1 dw

Structure (SMILES): O=C1Nc2ccc(Cl)cc2C(c2ccccc2)=NC1O (stereo not drawn) [oxazepam]
- reduction of mean internal concentration over the 48 h depuration period (Gammarus pulex [5]; G. pulex, diazepam exposure): 21 ng g^−1 dw
- k2 of biotransformation product (Gammarus pulex [5]; G. pulex, diazepam exposure): 0.009 day⁻¹
- BCF in Gammarus fossarum (Gammarus fossarum): 22 L/kg
